Measurements taken from patent US20110065796A1 (SHIRE LLC, priority 2009, published 2011).

Legend:
[1] = Prodrug stability in simulated gastric fluid; conditions: 37° C., pH 1.1, HPLC
Protocol: (§1) The remaining concentrations of the prodrugs were then assayed by H PLC.

[2] = Prodrug stability in simulated intestinal fluid; conditions: 37° C., pH 6.8, HPLC
Protocol: as §1

| SMILES | % prodrug remaining following incubation for 1 h in simulated gastric fluid pH 1.1 [1] | % prodrug remaining following incubation for 2 h in simulated intestinal fluid pH 6.8 [2] |
| --- | --- | --- |
| N=C(NC(=O)Cc1c(Cl)cccc1Cl)NC(=O)OCC[C@H](NC(=O)CCN)C(=O)O [Compound 67, Guanfacine ((S)- Homoserine-β-Alanine) Carbamate] | 99% | 97% |
| CC(C)[C@@H](NC(=O)COC(=O)NC(=N)NC(=O)Cc1c(Cl)cccc1Cl)C(=O)O [Compound 30, Guanfacine (Glycolyl -(R)-Valine) Carbamate] | 77% | 160% |
| C[C@@H]1N=C(NC(=O)Cc2c(Cl)cccc2Cl)NC1=O [Compound 39, Guanfacine-(S)-AlanineCyclic Adduct] | 89% | 104% |
| CNCC(=O)NCCOC(=O)NC(=N)NC(=O)Cc1c(Cl)cccc1Cl [Compound 71, Guanfacine (Ethanolamine-Sarcosine) Carbamate] | 91% | 89% |
| CC(C)[C@@H](N)C(=O)N[C@H](CCC(=O)NC(=N)NC(=O)Cc1c(Cl)cccc1Cl)C(=O)O [Compound 31, Guanfacine ((R)-γ-Glutamate (R)-Valine) Amide] | 70% | 85% |
| CC(C)(COC(=O)NC(=N)NC(=O)Cc1c(Cl)cccc1Cl)[C@@H](O)C(=O)NCCC(=O)O [Compound 68, Guanfacine Pantothenic acid Carbamate] | 86% | 75% |
| CSCC[C@@H](N)C(=O)N[C@@H](CCC(=O)NC(=N)NC(=O)Cc1c(Cl)cccc1Cl)C(=O)O [Compound 44, Guanfacine ((S)-γ-Glutamate-(R)-Methionine) Amide] | 75% | 85% |
| O=C1CCN=C(NC(=O)Cc2c(Cl)cccc2Cl)N1 [Compound 34, Guanfacine-β-Alanine Cyclic Adduct] | 51% | 91% |
| CN1CC(=O)N=C1NC(=O)Cc1c(Cl)cccc1Cl [Compound 12, Guanfacine-Sarcosine Cyclic Adduct] | 48% | 87% |
| NCCCC[C@@H]1N=C(NC(=O)Cc2c(Cl)cccc2Cl)NC1=O [Compound 36, Guanfacine-(S)-Lysine Cyclic Adduct] | 83% | 101% |
| CC(C)[C@@H]1N=C(NC(=O)Cc2c(Cl)cccc2Cl)NC1=O [Compound 35, Guanfacine-(S)-Valine Cyclic Adduct] | 83% | 108% |
| C[C@H]1N=C(NC(=O)Cc2c(Cl)cccc2Cl)NC1=O [Compound 51, Guanfacine-(R)-Alanine Cyclic Adduct] | 80% | 103% |
| CCC(C)[C@@H](N)C(=O)NCCCC(=O)NC(=N)NC(=O)Cc1c(Cl)cccc1Cl (stereo partly drawn) [Compound 50, Guanfacine (GABA-(R)-Isoleucine) Amide] | 85% | 81% |
| N=C(NC(=O)Cc1c(Cl)cccc1Cl)NC(=O)O[C@@H]1CN[C@H](C(=O)O)C1 [Compound 14, Guanfacine (S,S)-4-Hydroxyproline Carbamate] | 70% | 108% |
| N=C(NC(=O)CC[C@H](NC(=O)[C@H](N)CCC(N)=O)C(=O)O)NC(=O)Cc1c(Cl)cccc1Cl [Compound 46, Guanfacine ((S)-γ-Glutamate-(R)-Glutamine) Amide] | 61% | 81% |
| N=C(NC(=O)Cc1c(Cl)cccc1Cl)NC(=O)OCCNC(=O)CN [Compound 49, Guanfacine (Ethanolamine-Glycine) Carbamate] | 87% | 101% |
| N=C(NC(=O)Cc1c(Cl)cccc1Cl)NC(=O)OCC[C@H](N)C(=O)O [Compound 65, Guafacine (S)-Homoserine Carbamate] | 90% | 99% |

| SMILES | % prodrug remaining following incubation for 1 h in simulated gastric fluid pH 1.1 [1] | % prodrug remaining following incubation for 2 h in simulated intestinal fluid pH 6.8 [2] |
| --- | --- | --- |
| CC(C)[C@@H](N)C(=O)NCCOC(=O)NC(=N)NC(=O)Cc1c(Cl)cccc1Cl [Compound 27, Guanfacine (Ethanolamine-(R)-Valine) Carbamate] | 78% | 111% |
| N=C(NC(=O)Cc1c(Cl)cccc1Cl)NC(=O)OCCNC(=O)[C@@H]1CCC(=O)N1 [Compound 28, Guanfacine (Ethanolamine-(S)-Pyroglutamic acid) Carbamate] | 103% | 106% |
| N=C(NC(=O)CC[C@H](NC(=O)[C@H](N)Cc1ccc(O)cc1)C(=O)O)NC(=O)Cc1c(Cl)cccc1Cl [Compound 45, Guanfacine ((S)-γ-Glutamate-(R)-Tyrosine) Amide] | 74% | 91% |
| N=C(NC(=O)Cc1c(Cl)cccc1Cl)NC(=O)OC[C@H](NC(=O)[C@@H]1CCC(=O)N1)C(=O)O [Compound 16, Guanfacine ((S)-Serine-(S)-Pyroglutamic acid) Carbamate] | 78% | 95% |
| N=C(NC(=O)Cc1c(Cl)cccc1Cl)NC(=O)Oc1ccc(C[C@H](N)C(=O)O)cc1 [Compound 13, Guanfacine (S)-Tyrosine Carbamate] | 74% | 81% |
| NC(=O)CC[C@@H]1N=C(NC(=O)Cc2c(Cl)cccc2Cl)NC1=O [Compound 38, Guanfacine-(S)-Glutamine Cyclic Adduct] | 70% | 87% |
| N=C(NC(=O)CCCNC(=O)CC[C@H](N)C(=O)O)NC(=O)Cc1c(Cl)cccc1Cl [Compound 57, Guanfacine (GABA-(S)-γ-Glutamate) Amide] | 81% | 106% |
| CC(C)[C@H](NC(=O)CC(C)(C)CC(=O)NC(=N)NC(=O)Cc1c(Cl)cccc1Cl)C(=O)O [Compound 33, Guanfacine (3,3-dimethylglutaryl-(S)-Valine) Amide] | 79% | 99% |
| N=C(NC(=O)CCCNC(=O)[C@@H]1CCC(=O)N1)NC(=O)Cc1c(Cl)cccc1Cl [Compound 23, Guanfacine (GABA-(S)-Pyroglutamic acid) Amide] | 98% | 78% |
| N=C(NC(=O)Cc1c(Cl)cccc1Cl)NC(=O)OC[C@H](NC(=O)CCN)C(=O)O [Compound 64, Guanfacine ((S)-Serine-β-Alanine) Carbamate] | 88% | 93% |
| CC(C)[C@H](NC(=O)COC(=O)NC(=N)NC(=O)Cc1c(Cl)cccc1Cl)C(=O)O [Compound 29, Guanfacine (Glycolyl-(S)-Valine) Carbamate] | 80% | 99% |
| CC(C)[C@H](N)C(=O)N[C@H](C(=O)O)[C@@H](C)OC(=O)NC(=N)NC(=O)Cc1c(Cl)cccc1Cl [Compound 20, Guanfacine ((S)-Threonine-(S)-Valine) Carbamate] | 79% | 100% |
| CC(C)C[C@@H](N)C(=O)N[C@@H](CCC(=O)NC(=N)NC(=O)Cc1c(Cl)cccc1Cl)C(=O)O [Compound 42, Guanfacine ((S)-γ-Glutamate-(R)-Leucine) Amide] | 70% | 83% |
| CC(C)[C@@H](N)C(=O)N[C@H](C(=O)O)[C@@H](C)OC(=O)NC(=N)NC(=O)Cc1c(Cl)cccc1Cl [Compound 21, Guanfacine ((S)-Threonine-(R)-Valine) Carbamate] | 83% | 103% |
| N=C(NC(=O)CC[C@H](NC(=O)c1ccc(N)cc1)C(=O)O)NC(=O)Cc1c(Cl)cccc1Cl [Compound 70, Guanfacine ((S)-γ-Glutamate-PABA) Amide] | 64% | 93% |
| CC(C)(CO)[C@@H](O)C(=O)NCCCOC(=O)NC(=N)NC(=O)Cc1c(Cl)cccc1Cl [Compound 69, Guanfacine Panthenol Carbamate] | 85% | 96% |
| C[C@@H](OC(=O)NC(=N)NC(=O)Cc1c(Cl)cccc1Cl)[C@H](NC(=O)[C@@H]1CCC(=O)N1)C(=O)O [Compound 19, Guanfacine ((S)-Threonine-(S)-Pyroglutamic acid) Carbamate] | 92% | 102% |
